Test results as given in ChEMBL document CHEMBL1201862, “PubChem BioAssay data set” (2004).
Values joined by “and” are separate entries in the source; they are usually repeats but may differ in a detail not shown here. Identical values can stand only once.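 Values below derive from 48-hour exposures of cells grown in 96-well plates, with endpoints linearly interpolated between the two concentrations bracketing the appropriate inhibition level. GI50 marks 50% less growth.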 Active and inactive are the calls of the source. Cut-off read from the data, not from the text of the source: active = GI50 up to about 1.1 µM and inactive = higher.

How the values were obtained:
Test in all cases: DTP human tumour cell line panel, 48 h
[1] = test system: BT-549
[2] = test system: CAKI-1
[3] = test system: CCRF-CEM
[4] = test system: COLO 205
[5] = test system: DU-145
[6] = test system: EKVX
[7] = test system: HCC 2998
[8] = test system: HCT-15
[9] = test system: HL-60
[10] = test system: Hs-578T
[11] = test system: IGROV-1
[12] = test system: K562
[13] = test system: KM12
[14] = test system: LOX IMVI
[15] = test system: MCF7
[16] = test system: MDA-MB-435
[17] = test system: MDA-N
[18] = test system: MOLT-4
[19] = test system: Malme-3M
[20] = test system: NCI-H226
[21] = test system: OVCAR-3
[22] = test system: OVCAR-4
[23] = test system: OVCAR-5
[24] = test system: OVCAR-8
[25] = test system: PC-3
[26] = test system: RXF 393
[27] = test system: SF-295
[28] = test system: SK-MEL-28
[29] = test system: SK-MEL-2
[30] = test system: SK-OV-3
[31] = test system: SN12C
[32] = test system: SNB-19
[33] = test system: SR
[34] = test system: SW-620
[35] = test system: TK-10
[36] = test system: U-251
[37] = test system: UACC-257
[38] = test system: UACC-62
[39] = test system: UO-31
[40] = test system: 786-0
[41] = test system: A549
[42] = test system: ACHN
[43] = test system: HOP-62
[44] = test system: HT-29
[45] = test system: M14
[46] = test system: MDA-MB-231
[47] = test system: NCI-H23
[48] = test system: NCI-H460
[49] = test system: NCI-H522
[50] = test system: NCI/ADR-RES
[51] = test system: SF-268
[52] = test system: SF-539
[53] = test system: SK-MEL-5
[54] = test system: SNB-75
[55] = test system: HCT-116
[56] = test system: HOP-92

`N#Cc1c2c(c(-c3cccs3)n(C3OC(CO)C(O)C(O)C3O)c1=S)CCc1ccccc1-2` (stereo not given) was tested, and the GI50 [1] was > 100 µM (inactive), the GI50 [2] was 6.65 µM (inactive) and 6.14 µM (inactive) and the GI50 [3] was > 57.8 µM (inactive) and 36.8 µM (inactive). The GI50 [4] was 30 µM (inactive) and 40 µM (inactive), the GI50 [5] was > 100 µM (inactive) and the GI50 [6] was > 24.9 µM (inactive). The GI50 [7] was 59.8 µM (inactive) and > 41.5 µM (inactive), the GI50 [8] was 7.03 µM and 6.32 µM and the GI50 [9] was > 20.9 µM (inactive). For the same compound, the GI50 [10] was 8.97 µM (inactive) and 5.97 µM (inactive), the GI50 [11] was 97.9 µM (inactive) and > 86.3 µM (inactive) and the GI50 [12] was 6.58 µM (inactive) and 4.93 µM (inactive). The GI50 [13] was > 45.6 µM (inactive) and 38.2 µM (inactive), the GI50 [14] was > 22.3 µM (inactive) and > 22.2 µM (inactive) and the GI50 [15] was 5.42 µM (inactive) and 3.85 µM (inactive). The GI50 [16] was 3.36 µM (inactive) and 3.44 µM (inactive), the GI50 [17] was 6.4 µM (inactive) and 4.23 µM (inactive) and the GI50 [18] was 8.32 µM (inactive) and 14.3 µM (inactive). The GI50 [19] was 66.2 µM (inactive) and 35.6 µM (inactive), the GI50 [20] was > 100 µM (inactive) and the GI50 [21] was 20.8 µM (inactive) and 22.5 µM (inactive). For the same compound, the GI50 [22] was 29.8 µM (inactive) and > 39 µM (inactive), the GI50 [23] was > 100 µM (inactive) and the GI50 [24] was 97.5 µM (inactive) and > 87.7 µM (inactive). For the same compound, the GI50 [25] was 46.3 µM (inactive) and 28.4 µM (inactive), the GI50 [26] was 24.3 µM (inactive) and 23 µM (inactive) and the GI50 [27] was 27.6 µM (inactive) and 48.6 µM (inactive). The GI50 [28] was > 100 µM (inactive), the GI50 [29] was > 100 µM (inactive) and > 56.8 µM (inactive) and the GI50 [30] was 7.67 µM (inactive) and 7.45 µM (inactive). For the same compound, the GI50 [31] was > 26.7 µM (inactive) and > 21.7 µM (inactive), the GI50 [32] was > 100 µM (inactive) and 98.2 µM (inactive) and the GI50 [33] was 5.82 µM (inactive) and 4.76 µM (inactive). The GI50 [34] was > 100 µM (inactive), the GI50 [35] was > 29 µM (inactive) and > 20.8 µM (inactive) and the GI50 [36] was 37.2 µM (inactive) and 21.4 µM (inactive). For the same compound, the GI50 [37] was > 43.8 µM (inactive) and > 51.2 µM (inactive), the GI50 [38] was 5.64 µM (inactive) and 7.8 µM (inactive) and the GI50 [39] was 3.04 µM (inactive).

With `O=C1NC2ON=C(c3ccccc3)C2C2ON=C(c3ccccc3)N12` (stereo not given) the GI50 [40] was > 100 µM (inactive), the GI50 [41] was > 100 µM (inactive) and the GI50 [42] was > 100 µM (inactive). The GI50 [1] was > 100 µM (inactive), the GI50 [2] was > 100 µM (inactive) and the GI50 [4] was > 100 µM (inactive). The GI50 [5] was > 100 µM (inactive), the GI50 [6] was > 100 µM (inactive) and the GI50 [7] was > 100 µM (inactive). The GI50 [8] was 43.4 µM, the GI50 [43] was > 100 µM (inactive) and the GI50 [44] was 41.2 µM (inactive). The GI50 [10] was 63.2 µM (inactive), the GI50 [11] was 54.3 µM (inactive) and the GI50 [13] was 69.2 µM (inactive). The GI50 [14] was 90.4 µM (inactive), the GI50 [45] was > 100 µM (inactive) and the GI50 [15] was 77.4 µM (inactive). For the same compound, the GI50 [46] was > 100 µM (inactive), the GI50 [17] was 39.6 µM (inactive) and the GI50 [19] was > 100 µM (inactive). For the same compound, the GI50 [20] was > 100 µM (inactive), the GI50 [47] was > 100 µM (inactive) and the GI50 [48] was > 100 µM (inactive). The GI50 [49] was 40.5 µM (inactive), the GI50 [50] was 45.9 µM (inactive) and the GI50 [21] was > 100 µM (inactive). The GI50 [23] was > 100 µM (inactive), the GI50 [24] was 64.6 µM (inactive) and the GI50 [25] was 72.4 µM (inactive). The GI50 [26] was > 100 µM (inactive), the GI50 [51] was > 100 µM (inactive) and the GI50 [27] was > 100 µM (inactive). The GI50 [52] was > 100 µM (inactive), the GI50 [53] was 54 µM (inactive) and the GI50 [30] was > 100 µM (inactive). For the same compound, the GI50 [32] was 92 µM (inactive), the GI50 [54] was > 100 µM (inactive) and the GI50 [35] was > 100 µM (inactive). For the same compound, the GI50 [37] was > 100 µM (inactive), the GI50 [38] was > 100 µM (inactive) and the GI50 [39] was > 100 µM (inactive).

With `O=C(CCN1CCCC1)c1ccc(Oc2ccc(F)cc2)cc1` the GI50 [40] was 16.6 µM (inactive), the GI50 [41] was > 100 µM (inactive) and the GI50 [42] was > 100 µM (inactive). The GI50 [1] was 74 µM (inactive), the GI50 [2] was 16.3 µM (inactive) and the GI50 [3] was 26.5 µM (inactive). The GI50 [4] was 23 µM (inactive), the GI50 [5] was 53.5 µM (inactive) and the GI50 [6] was 93.3 µM (inactive). The GI50 [7] was 45.1 µM (inactive), the GI50 [55] was 60.8 µM (inactive) and the GI50 [8] was 41.3 µM. For the same compound, the GI50 [9] was 16 µM (inactive), the GI50 [43] was > 100 µM (inactive) and the GI50 [56] was 15 µM (inactive). For the same compound, the GI50 [44] was 32.5 µM (inactive), the GI50 [10] was 30.1 µM (inactive) and the GI50 [11] was 33 µM (inactive). The GI50 [12] was 42.4 µM (inactive), the GI50 [13] was 29.9 µM (inactive) and the GI50 [14] was 30.5 µM (inactive). The GI50 [45] was 31 µM (inactive), the GI50 [15] was 15.6 µM (inactive) and the GI50 [46] was > 100 µM (inactive). The GI50 [16] was > 100 µM (inactive), the GI50 [17] was 58.3 µM (inactive) and the GI50 [18] was 24.4 µM (inactive). For the same compound, the GI50 [19] was 27.8 µM (inactive), the GI50 [20] was > 100 µM (inactive) and the GI50 [47] was > 100 µM (inactive). The GI50 [48] was > 100 µM (inactive), the GI50 [50] was > 100 µM (inactive) and the GI50 [21] was 30.9 µM (inactive). For the same compound, the GI50 [22] was > 100 µM (inactive), the GI50 [23] was > 100 µM (inactive) and the GI50 [24] was > 100 µM (inactive). For the same compound, the GI50 [25] was 38.5 µM (inactive), the GI50 [26] was 22.3 µM (inactive) and the GI50 [51] was 87.3 µM (inactive). The GI50 [27] was 90.2 µM (inactive), the GI50 [52] was 29.9 µM (inactive) and the GI50 [28] was > 100 µM (inactive). The GI50 [29] was > 100 µM (inactive), the GI50 [53] was 44.8 µM (inactive) and the GI50 [30] was > 100 µM (inactive). The GI50 [31] was 97.1 µM (inactive), the GI50 [32] was > 100 µM (inactive) and the GI50 [54] was 47.8 µM (inactive). For the same compound, the GI50 [34] was 78.7 µM (inactive), the GI50 [35] was 30.1 µM (inactive) and the GI50 [36] was > 100 µM (inactive). For the same compound, the GI50 [37] was 43.1 µM (inactive), the GI50 [38] was 54.2 µM (inactive) and the GI50 [39] was 50.9 µM (inactive).
